Measurements: patent publication US11331273B2, “Film-coated tablet having high chemical stability of active ingredient” (Intercept Pharmaceuticals, Inc., priority 2016, dated 2022)
Where “and” joins values, the source holds several entries; their conditions need not be identical. Identical values can stand only once.

Assay: Storage stability of obeticholic acid (unmodified) in test tubes: dimer quantified per Test Example 2
Assay type: physicochemical
Experimental: Obeticholic acid (unmodified) was weighed out in amounts of 5 mg into test tubes to serve as individual samples.
Test Lubes containing the obeticholic acid (unmodified) prepared in Example 1 were stored under the following conditions. The amounts of obeticholic acid dimer generated before (initial) and after storage were measured in accordance with Test Example 2. • Four weeks (4 W) at 50° C. and 85% RH (open) • Four weeks (4 W) at 60° C. (closed)
The amount of obeticholic acid dimer generated was measured in the same manner described in Test Example 1, with the exception that the sample solution was prepared as follows.
Acetonitrile/water (9/1) was added in an amount of exactly 10 mL to test tubes that had been retrieved from storage, and the contents were ultrasounded to extract the obeticholic acid. Following centrifugation (10 min at 3000 rpm), the supernatant was made into samples for HPLC assay (500 μg/mL obeticholic acid).

Amount of obeticholic acid dimer production (%) (50° C., 85% RH, open, 4 W): 0.83%
Increase (%) in obeticholic acid dimerization from initial product (50° C., 85% RH, open, 4 W): 0.79%
Amount of obeticholic acid dimer production (%) (60° C., closed, 4 W): 0.81%
Increase (%) in obeticholic acid dimerization from initial product (60° C., closed, 4 W): 0.77% and 0.78%
Amount of obeticholic acid dimer production (%) (Initial): 0.04%
Structure (SMILES): CC[C@H]1[C@@H](O)[C@@H]2[C@H](CC[C@]3(C)[C@@H]([C@H](C)CCC(=O)O)CC[C@@H]23)[C@@]2(C)CC[C@@H](O)C[C@@H]12 [Comparative Example 3, 3α,7α-dihydroxy-6α-ethyl-5β-cholan-24-oic acid]
